Experimental data from US12194124B2, “Personal care compositions for treating odor causing bacteria and methods for the same” (Colgate-Palmolive Company, priority 2019, dated 2025).

Test system: S. Haemolyticus
Test: Growth inhibition assay in 96-well plate, optical density of S. Haemolyticus
Type: cell-based, Staphylococcus haemolyticus
Experimental: The efficacy of 2-butyl octanol for selectively promoting, inhibiting, reducing, and/or treating bacterial growth was evaluated. Particularly, the efficacy of 2-butyl octanol for selectively promoting, inhibiting, reducing, and/or treating bacterial growth of Corynebacterium and Staphylococcus was evaluated. To evaluate the efficacy, an active solution was prepared by emulsifying 2-butyl octanol with a nonionic surfactant, namely, Polysorbate 80. The active solution included the 2-butyl octanol and the Polysorbate 80 in a ratio of about 83:17. Both positive controls (including no active solution) and negative controls (including no bacteria) were also prepared.
A 96-well plate was utilized to evaluate the growth of the respective bacteria at varying dilutions. Each of the wells of a 96-well plate was aseptically filled with about 100 μL of Tryptic Soy Broth (TSB). In the first well of each row, about 100 μL of either the active solution (including the 2-butyl octanol and Polysorbate 80) or the desired solvent for the respective positive and negative controls was added to thereby provide a total of about 200 μL in the first well of the each respective row. A multi-channel pipette was then utilized to prepare a two-fold dilution in each column. Specifically, a multi-channel pipette set to about 100 μL was utilized to mix and transfer about 100 μL of the 200 μL from the wells of the first column to the respective wells of a subsequent column. This was repeated for each of the remaining eleven columns. About 100 μL of the twelfth column was removed, thereby leaving about 100 μL in each of the 96 wells. […] Specifically, a phosphate buffered saline (PBS) was utilized for the negative control. About 100 μL of the respective bacteria adjusted to 0.1 optical density (OD) bacteria was added to all other wells. The well plate was then incubated overnight at about 37° C. in a growth inhibition assay machine. Measurements were taken at about one hour increments.

## CCCCCCC(CO)CCCC (stereo not shown) [2-butyl octanol, 2-butyl-1-octanol]
0.02% 2-Butyl Octanol, 1 Hour
  Measured Optical Density of S. Haemolyticus: 0.017
0.02% 2-Butyl Octanol, 2 Hour
  Measured Optical Density of S. Haemolyticus: 0.129
0.02% 2-Butyl Octanol, 3 Hour
  Measured Optical Density of S. Haemolyticus: 0.203
0.02% 2-Butyl Octanol, 4 Hour
  Measured Optical Density of S. Haemolyticus: 0.218
0.02% 2-Butyl Octanol, 5 Hour
  Measured Optical Density of S. Haemolyticus: 0.272
0.02% 2-Butyl Octanol, 6 Hour
  Measured Optical Density of S. Haemolyticus: 0.34
0.02% 2-Butyl Octanol, 7 Hour
  Measured Optical Density of S. Haemolyticus: 0.426
0.02% 2-Butyl Octanol, 8 Hour
  Measured Optical Density of S. Haemolyticus: 0.503
0.02% 2-Butyl Octanol, 9 Hour
  Measured Optical Density of S. Haemolyticus: 0.558
0.02% 2-Butyl Octanol, 10 Hour
  Measured Optical Density of S. Haemolyticus: 0.616
0.02% 2-Butyl Octanol, 11 Hour
  Measured Optical Density of S. Haemolyticus: 0.649
0.02% 2-Butyl Octanol, 12 Hour
  Measured Optical Density of S. Haemolyticus: 0.671
0.02% 2-Butyl Octanol, 13 Hour
  Measured Optical Density of S. Haemolyticus: 0.702
0.02% 2-Butyl Octanol, 14 Hour
  Measured Optical Density of S. Haemolyticus: 0.719
0.02% 2-Butyl Octanol, 15 Hour
  Measured Optical Density of S. Haemolyticus: 0.724
0.02% 2-Butyl Octanol, 16 Hour
  Measured Optical Density of S. Haemolyticus: 0.735
0.02% 2-Butyl Octanol, 17 Hour
  Measured Optical Density of S. Haemolyticus: 0.748
0.02% 2-Butyl Octanol, 18 Hour
  Measured Optical Density of S. Haemolyticus: 0.751
0.04% 2-Butyl Octanol, 1 Hour
  Measured Optical Density of S. Haemolyticus: 0.026
0.04% 2-Butyl Octanol, 2 Hour
  Measured Optical Density of S. Haemolyticus: 0.153
0.04% 2-Butyl Octanol, 3 Hour
  Measured Optical Density of S. Haemolyticus: 0.237
0.04% 2-Butyl Octanol, 4 Hour
  Measured Optical Density of S. Haemolyticus: 0.247
0.04% 2-Butyl Octanol, 5 Hour
  Measured Optical Density of S. Haemolyticus: 0.286
0.04% 2-Butyl Octanol, 6 Hour
  Measured Optical Density of S. Haemolyticus: 0.328
0.04% 2-Butyl Octanol, 7 Hour
  Measured Optical Density of S. Haemolyticus: 0.389
0.04% 2-Butyl Octanol, 8 Hour
  Measured Optical Density of S. Haemolyticus: 0.453
0.04% 2-Butyl Octanol, 9 Hour
  Measured Optical Density of S. Haemolyticus: 0.514
0.04% 2-Butyl Octanol, 10 Hour
  Measured Optical Density of S. Haemolyticus: 0.56
0.04% 2-Butyl Octanol, 11 Hour
  Measured Optical Density of S. Haemolyticus: 0.596
0.04% 2-Butyl Octanol, 12 Hour
  Measured Optical Density of S. Haemolyticus: 0.619
0.04% 2-Butyl Octanol, 13 Hour
  Measured Optical Density of S. Haemolyticus: 0.624
0.04% 2-Butyl Octanol, 14 Hour
  Measured Optical Density of S. Haemolyticus: 0.635
0.04% 2-Butyl Octanol, 15 Hour
  Measured Optical Density of S. Haemolyticus: 0.656
0.04% 2-Butyl Octanol, 16 Hour
  Measured Optical Density of S. Haemolyticus: 0.657
0.04% 2-Butyl Octanol, 17 Hour
  Measured Optical Density of S. Haemolyticus: 0.671
0.04% 2-Butyl Octanol, 18 Hour
  Measured Optical Density of S. Haemolyticus: 0.676
0.08% 2-Butyl Octanol, 1 Hour
  Measured Optical Density of S. Haemolyticus: 0.039
0.08% 2-Butyl Octanol, 2 Hour
  Measured Optical Density of S. Haemolyticus: 0.205
0.08% 2-Butyl Octanol, 3 Hour
  Measured Optical Density of S. Haemolyticus: 0.308
0.08% 2-Butyl Octanol, 4 Hour
  Measured Optical Density of S. Haemolyticus: 0.317
0.08% 2-Butyl Octanol, 5 Hour
  Measured Optical Density of S. Haemolyticus: 0.355
0.08% 2-Butyl Octanol, 6 Hour
  Measured Optical Density of S. Haemolyticus: 0.401
0.08% 2-Butyl Octanol, 7 Hour
  Measured Optical Density of S. Haemolyticus: 0.462
0.08% 2-Butyl Octanol, 8 Hour
  Measured Optical Density of S. Haemolyticus: 0.53
0.08% 2-Butyl Octanol, 9 Hour
  Measured Optical Density of S. Haemolyticus: 0.58
0.08% 2-Butyl Octanol, 10 Hour
  Measured Optical Density of S. Haemolyticus: 0.614
0.08% 2-Butyl Octanol, 11 Hour
  Measured Optical Density of S. Haemolyticus: 0.637
0.08% 2-Butyl Octanol, 12 Hour
  Measured Optical Density of S. Haemolyticus: 0.647
0.08% 2-Butyl Octanol, 13 Hour
  Measured Optical Density of S. Haemolyticus: 0.673
0.08% 2-Butyl Octanol, 14 Hour
  Measured Optical Density of S. Haemolyticus: 0.683
0.08% 2-Butyl Octanol, 15 Hour
  Measured Optical Density of S. Haemolyticus: 0.693
0.08% 2-Butyl Octanol, 16 Hour
  Measured Optical Density of S. Haemolyticus: 0.708
0.08% 2-Butyl Octanol, 17 Hour
  Measured Optical Density of S. Haemolyticus: 0.733
0.08% 2-Butyl Octanol, 18 Hour
  Measured Optical Density of S. Haemolyticus: 0.744
0.16% 2-Butyl Octanol, 1 Hour
  Measured Optical Density of S. Haemolyticus: 0.049
0.16% 2-Butyl Octanol, 2 Hour
  Measured Optical Density of S. Haemolyticus: 0.175
0.16% 2-Butyl Octanol, 3 Hour
  Measured Optical Density of S. Haemolyticus: 0.26
0.16% 2-Butyl Octanol, 4 Hour
  Measured Optical Density of S. Haemolyticus: 0.285
0.16% 2-Butyl Octanol, 5 Hour
  Measured Optical Density of S. Haemolyticus: 0.326
0.16% 2-Butyl Octanol, 6 Hour
  Measured Optical Density of S. Haemolyticus: 0.39
0.16% 2-Butyl Octanol, 7 Hour
  Measured Optical Density of S. Haemolyticus: 0.464
0.16% 2-Butyl Octanol, 8 Hour
  Measured Optical Density of S. Haemolyticus: 0.524
0.16% 2-Butyl Octanol, 9 Hour
  Measured Optical Density of S. Haemolyticus: 0.579
0.16% 2-Butyl Octanol, 10 Hour
  Measured Optical Density of S. Haemolyticus: 0.627
0.16% 2-Butyl Octanol, 11 Hour
  Measured Optical Density of S. Haemolyticus: 0.66
0.16% 2-Butyl Octanol, 12 Hour
  Measured Optical Density of S. Haemolyticus: 0.684
0.16% 2-Butyl Octanol, 13 Hour
  Measured Optical Density of S. Haemolyticus: 0.71
0.16% 2-Butyl Octanol, 14 Hour
  Measured Optical Density of S. Haemolyticus: 0.719
0.16% 2-Butyl Octanol, 15 Hour
  Measured Optical Density of S. Haemolyticus: 0.724
0.16% 2-Butyl Octanol, 16 Hour
  Measured Optical Density of S. Haemolyticus: 0.74
0.16% 2-Butyl Octanol, 17 Hour
  Measured Optical Density of S. Haemolyticus: 0.756
0.16% 2-Butyl Octanol, 18 Hour
  Measured Optical Density of S. Haemolyticus: 0.77
2-butyl octanol about 0.02 weight % to about 5.2 weight %
  growth of S. hominis: did not inhibit the growth of and/or promoted the growth of
5.2% 2-Butyl Octanol, 1 Hour
  Measured Optical Density of S. Haemolyticus: 0.198
5.2% 2-Butyl Octanol, 2 Hour
  Measured Optical Density of S. Haemolyticus: 0.254
5.2% 2-Butyl Octanol, 3 Hour
  Measured Optical Density of S. Haemolyticus: 0.345
5.2% 2-Butyl Octanol, 4 Hour
  Measured Optical Density of S. Haemolyticus: 0.383
5.2% 2-Butyl Octanol, 5 Hour
  Measured Optical Density of S. Haemolyticus: 0.396
5.2% 2-Butyl Octanol, 6 Hour
  Measured Optical Density of S. Haemolyticus: 0.384
5.2% 2-Butyl Octanol, 7 Hour
  Measured Optical Density of S. Haemolyticus: 0.403
5.2% 2-Butyl Octanol, 8 Hour
  Measured Optical Density of S. Haemolyticus: 0.477
5.2% 2-Butyl Octanol, 9 Hour
  Measured Optical Density of S. Haemolyticus: 0.549
5.2% 2-Butyl Octanol, 10 Hour
  Measured Optical Density of S. Haemolyticus: 0.603
5.2% 2-Butyl Octanol, 11 Hour
  Measured Optical Density of S. Haemolyticus: 0.622
5.2% 2-Butyl Octanol, 12 Hour
  Measured Optical Density of S. Haemolyticus: 0.639
5.2% 2-Butyl Octanol, 13 Hour
  Measured Optical Density of S. Haemolyticus: 0.654
5.2% 2-Butyl Octanol, 14 Hour
  Measured Optical Density of S. Haemolyticus: 0.681
5.2% 2-Butyl Octanol, 15 Hour
  Measured Optical Density of S. Haemolyticus: 0.699
5.2% 2-Butyl Octanol, 16 Hour
  Measured Optical Density of S. Haemolyticus: 0.722
5.2% 2-Butyl Octanol, 17 Hour
  Measured Optical Density of S. Haemolyticus: 0.742
5.2% 2-Butyl Octanol, 18 Hour
  Measured Optical Density of S. Haemolyticus: 0.752
